Laboratory results taken from ChEMBL document CHEMBL3046894, “Synthesis and Herbicidal Activity of Pyrimidinyl Salicylic and Thiosalicylic Acids” (J Pestic Sci, 1996).
Active and inactive are the calls of the source. The rule behind the calls is not given here.

Legend:
Zea mays [1] = assay: Pre-emergence phytotoxicity against Zea mays (maize) assessed as mortality at 1.6 g a.i/10 a; type: organism-based; conditions: in vivo, other
Gossypium hirsutum [2] = assay: Pre-emergence phytotoxicity against Gossypium hirsutum (cotton) assessed as mortality at 1.6 g a.i/10 a; type: organism-based; conditions: in vivo, other
Xanthium strumarium [3] = assay: Pre-emergence herbicidal activity against Xanthium strumarium (cocklebur) assessed as mortality at 1.6 g a.i/10 a; type: functional
[4] = (§1) Post-emergence phytotoxicity against Zea mays (maize) assessed as mortality at 1.6 g a.i/10 a applied 11 days after germination as foliar spray; type: organism-based; conditions: in vivo, 1.6 g a.i/10 a
Abutilon theophrasti = assay: Post-emergence herbicidal activity against Abutilon theophrasti (velvetleaf) assessed as mortality at 6.3 g a.i/10 a applied 11 days after germination as foliar spray; type: functional; conditions: 264 h
[5] = Post-emergence phytotoxicity against Gossypium hirsutum (cotton) assessed as mortality at 1.6 g a.i/10 a applied 11 days after germination as foliar spray; type: organism-based; conditions: in vivo, 1.6 g a.i/10 a
Glycine max [6] = assay: Post-emergence phytotoxicity against Glycine max (soybean) assessed as mortality at 6.3 g a.i/10 a applied 11 days after germination as foliar spray; type: organism-based; conditions: in vivo, other, 264 h
[7] = (§2) Post-emergence phytotoxicity against Gossypium hirsutum (cotton) assessed as mortality at 6.3 g a.i/10 a applied 11 days after germination as foliar spray; type: organism-based; conditions: in vivo, 6.3 g a.i/10 a
Ipomoea lacunosa [8] = assay: Pre-emergence herbicidal activity against Ipomoea lacunosa assessed as mortality at 1.6 g a.i/10 a; type: functional
Zea mays [9] = assay: Pre-emergence phytotoxicity against Zea mays (maize) assessed as mortality at 6.3 g a.i/10 a; type: organism-based; conditions: in vivo, other
Glycine max [10] = assay: (§3) Pre-emergence phytotoxicity against Glycine max (soybean) assessed as mortality at 1.6 g a.i/10 a; type: organism-based; conditions: in vivo, other
[11] = (§4) Pre-emergence phytotoxicity against Gossypium hirsutum (cotton) assessed as mortality at 6.3 g a.i/10 a; type: organism-based; conditions: in vivo, 6.3 g a.i/10 a, read-out: Activity
Glycine max [12] = assay: (§5) Pre-emergence phytotoxicity against Glycine max (soybean) assessed as mortality at 6.3 g a.i/10 a; type: organism-based; conditions: in vivo, other
Glycine max [13] = assay: Post-emergence phytotoxicity against Glycine max (soybean) assessed as mortality at 1.6 g a.i/10 a applied 11 days after germination as foliar spray; type: organism-based; conditions: in vivo, other, 264 h
Xanthium strumarium [14] = assay: Pre-emergence herbicidal activity against Xanthium strumarium (cocklebur) assessed as mortality per 10 acre; type: functional
Zea mays [15] = assay: as §1; type: organism-based; conditions: in vivo, other, 264 h
Amaranthus retroflexus [16] = assay: Pre-emergence herbicidal activity against Amaranthus retroflexus assessed as mortality per 10 acre; type: functional
Gossypium hirsutum [17] = assay: Pre-emergence phytotoxicity against Gossypium hirsutum (cotton) assessed as mortality per 10 acre; type: organism-based; conditions: in vivo
Echinochloa crus-galli [18] = assay: Post-emergence herbicidal activity against Echinochloa crus-galli (barnyard grass) assessed as mortality per 10 acre; type: functional
Ipomoea lacunosa [19] = assay: Pre-emergence herbicidal activity against Ipomoea lacunosa assessed as mortality per 10 acre; type: functional
Xanthium strumarium [20] = assay: Post-emergence herbicidal activity against Xanthium strumarium (cocklebur) assessed as mortality per 10 acre; type: functional
Persicaria nodosa [21] = assay: Pre-emergence herbicidal activity against Persicaria nodosa assessed as mortality per 10 acre; type: functional
Gossypium hirsutum [22] = assay: as §4; type: organism-based; conditions: in vivo, other
Ipomoea lacunosa [23] = assay: Post-emergence herbicidal activity against Ipomoea lacunosa assessed as mortality per 10 acre; type: functional
Echinochloa crus-galli [24] = assay: Pre-emergence herbicidal activity against Echinochloa crus-galli (barnyard grass) assessed as mortality per 10 acre; type: functional
Persicaria nodosa [25] = assay: Post-emergence herbicidal activity against Persicaria nodosa assessed as mortality per 10 acre; type: functional
Amaranthus retroflexus [26] = assay: Post-emergence herbicidal activity against Amaranthus retroflexus assessed as mortality per 10 acre; type: functional
Gossypium hirsutum [27] = assay: Post-emergence phytotoxicity against Gossypium hirsutum (cotton) assessed as mortality per 10 acre; type: organism-based; conditions: in vivo
Gossypium hirsutum [28] = assay: as §2; type: organism-based; conditions: in vivo, other, 264 h
Xanthium strumarium [29] = assay: Pre-emergence herbicidal activity against Xanthium strumarium (cocklebur) assessed as mortality at 6.3 g a.i/10 a; type: functional
[30] = as §3; type: organism-based; conditions: in vivo, 1.6 g a.i/10 a, read-out: Activity
Echinochloa crus-galli [31] = assay: Post-emergence herbicidal activity against Echinochloa crus-galli (barnyard grass) assessed as mortality at 6.3 g a.i/10 a applied 11 days after germination as foliar spray; type: functional; conditions: 264 h
[32] = as §5; type: organism-based; conditions: in vivo, 6.3 g a.i/10 a, read-out: Activity
Ipomoea lacunosa [33] = assay: Pre-emergence herbicidal activity against Ipomoea lacunosa assessed as mortality at 6.3 g a.i/10 a; type: functional

SMILES | Activity (Zea mays [1]) | Activity (Gossypium hirsutum [2]) [%] | Activity (Xanthium strumarium [3]) [%] | mortality at 63 g/ha (Abutilon theophrasti) [%] | mortality at 264 h [5] [%] | Activity (Glycine max [6]) | mortality at 264 h [7] [%] | Activity (Ipomoea lacunosa [8]) [%] | Activity (Zea mays [9]) | Activity (Glycine max [10]) | mortality [11] [%] | Activity (Glycine max [12]) | Activity (Glycine max [13]) | Activity (Zea mays [15]) | other results
COc1cc(OC)nc(Sc2cccc(I)c2C(=O)O)n1 | Toxic | < 50 | <50 | > 90 | < 5 | Toxic | < 5 | <50 | > 90% | Non-toxic | < 50 | Toxic | Toxic |  | mortality at 264 h [4]: > 90%
COc1cc(OC)nc(Sc2cccc(Br)c2C(=O)O)n1 | Toxic | < 50 |  | > 90 | < 5 | Toxic | < 5 |  | Toxic | Toxic |  | Toxic | Toxic | Toxic | ED90 (Xanthium strumarium [14]): 25 gAi; ED90 (Amaranthus retroflexus [16]): 1.5 gAi; ED20 (Gossypium hirsutum [17]): 50 gAi; ED90 (Echinochloa crus-galli [18]): 25 gAi; ED90 (Ipomoea lacunosa [19]): 25 gAi; ED90 (Xanthium strumarium [20]): Active; ED90 (Persicaria nodosa [21]): inactive; Activity (Gossypium hirsutum [22]): Non-toxic; ED90 (Ipomoea lacunosa [23]): Active; ED90 (Echinochloa crus-galli [24]): 25 gAi; ED90 (Persicaria nodosa [25]): 1.5 gAi; ED90 (Amaranthus retroflexus [26]): 1.5 gAi; ED20 (Gossypium hirsutum [27]): 50 gAi
COc1cc(OC)nc(Sc2cccc(C(C)=O)c2C(=O)O)n1 | Non-toxic | < 50 | <50 |  | < 5 | Non-toxic |  | <50 | Toxic |  | < 50 |  | Non-toxic | Toxic | Activity (Gossypium hirsutum [28]): Non-toxic; Activity (Xanthium strumarium [29]): <50%; mortality [30]: < 50%; mortality at 63 g/ha (Echinochloa crus-galli [31]): > 90%; mortality [32]: < 50%; Activity (Ipomoea lacunosa [33]): <50%
